According to article PMC4127532 (Journal of Medicinal Chemistry, 2014):

Tested on: A/England/195/2009 (H1N1), M2/N31
Type: cell-based
Details: 100 μM

## NC1C2CC3CC(C2)CC1C3 (stereo not shown) [Compound 3]
  % block after 30 min: 16 (100 μM; 1) %
